Results from patent EP2716637A1, “MANGIFERIN AGLYCONE CRYSTAL FORM I AND PREPARATION METHOD THEREOF” (Kunming Pharmaceutical Corp., priority 2011, dated 2012).
Where two headings read alike, the source gives them in different places.

How the values were obtained:
[1] = Blood concentration after oral (intragastric) administration to Beagle dogs; format: in vivo; details: for concentration: listed as Commercially available mangiferin aglycone
Experimental: Solid powder of mangiferin aglycone crystal form I and commercially available mangiferin aglycone (reference substance of mangiferin aglycone, purchased from Sigma Corporation, Lot No.: 8420-201002) were administered to Beagle dogs intragastrically respectively. The dosage of administration was 6mg/kg, and arterial blood of the dogs was drawn at different time points after administration to determine the content of mangiferin aglycone (See Table 4 and Figure 6). Table 4. Comparison of blood concentrations at different time points after mangiferin aglycone samples were administered orally to Beagle dogs

[2] = Active destructing test (stability) with HPLC analysis; format: physicochemical
Experimental: Active destructing test of mangiferin aglycone crystal form I: high purity mangiferin aglycone obtained in the same batch was respectively subjected to the following treatments: • (1) Destruction by strong acid: 0.5 mg sample was precisely weighed in a 50 ml measuring flask, and 1 ml of 0.1 mol/L hydrochloric acid aqueous solution was added, mixed evenly, and was allowed to stand for 48 hours at 20~30°C; • (2) Destruction by strong base: 0.5 mg sample was precisely weighed in a 50 ml measuring flask, and 1 ml of 0.1 mol/L sodium hydroxide aqueous solution was added, mixed evenly, and was allowed to stand for 48 hours at 20~30°C; • (3) Destruction by strong oxidant: 0.5 mg sample was precisely weighed in a 50 ml measuring flask, and 1 ml of 10% aqueous solution of hydrogen peroxide (H2O2) was added, mixed evenly, and was allowed to stand for 48 hours at 20~30°C; • (4) Destruction by high temperature: 0.5 mg sample was precisely weighed in a 50 ml measuring flask, and was allowed to stand for 48 hours at 100°C; • (5) Destruction by strong light: 0.5 mg sample was precisely weighed in a 50 ml measuring flask, and was allowed to stand for 240 hours under strong light condition of 4500±500 lux. The above-mentioned testing samples were taken out at specified time points, and methanol was added to dissolve and diluted the sample to the scale mark, shook well, then […] samples were analyzed by HPLC.
Stability test of mangiferin aglycone crystal form I

[3] = Stability of solutions in alkaline phosphate buffer, content by HPLC; format: physicochemical; details: for remaining at 2 h / remaining at 4 h / remaining at 6 h / remaining at 8 h / remaining at 12 h: phosphate buffer, read-out: content of mangiferin aglycone
Experimental: Appropriate amounts of mangiferin aglycone crystal form I and mangiferin aglycone were taken respectively, and phosphate buffer of pH 8.0, pH 9.0 and pH 10.0 were added respectively, metered to 100 ml, and were allowed to stand at 37°C, and samples were taken at 2, 4, 6, 8 and 12 hours respectively, and the content of mangiferin aglycone were measured by HPLC method. Stability of solution of mangiferin aglycone crystal form I

C57BL/6 normal mouse = details: reported from CN200810196777.4, cited from earlier work
[4] = molecular target: T1, recombinant humanized protein tyrosine phosphatase 1B (Homo sapiens, UniProt P18031); details: reported from CN200910184185.5; cited from earlier work
T1 sequence (P18031 1-435): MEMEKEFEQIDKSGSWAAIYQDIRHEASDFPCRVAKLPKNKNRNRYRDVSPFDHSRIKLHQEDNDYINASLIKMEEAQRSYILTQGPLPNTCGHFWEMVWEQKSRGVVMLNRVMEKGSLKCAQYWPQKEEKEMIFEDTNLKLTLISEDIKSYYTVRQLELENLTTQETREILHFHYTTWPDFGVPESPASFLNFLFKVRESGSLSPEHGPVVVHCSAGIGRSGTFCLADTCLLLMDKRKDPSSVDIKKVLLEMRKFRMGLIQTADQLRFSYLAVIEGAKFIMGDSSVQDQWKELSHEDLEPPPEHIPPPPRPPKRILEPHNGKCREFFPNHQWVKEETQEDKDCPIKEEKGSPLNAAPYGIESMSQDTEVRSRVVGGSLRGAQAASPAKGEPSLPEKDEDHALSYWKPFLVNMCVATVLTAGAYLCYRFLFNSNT

[5] = system: C57BL/6 normal mice and ob/ob diabetes model mice; details: cited from earlier work
[6] = destructing by high temperature: 48 hours at 100°C
[7] = destructing by strong acid: 0.1 mol/L hydrochloric acid, 48 hours at 20~30°C
[8] = destructing by strong base: 0.1 mol/L sodium hydroxide, 48 hours at 20~30°C
[9] = destructing by strong light: 240 hours at 4500±500 lux
[10] = destructing by strong oxidant: 10% hydrogen peroxide, 48 hours at 20~30°C

Q: Which results are given for `O=c1c2cc(O)c(O)cc2oc2cc(O)cc(O)c12` [mangiferin aglycone crystal form I, 1,3,6,7-tetrahydroxyxanthone]?
A: concentration at 0.25 h ([1]; dog, serum, po, 6 mg/kg, intragastrically, 6mg/kg, solid powder, 0.25 hr, read-out: Mangiferin aglycone concentration in serum): 721 nM; concentration at 0.5 h ([1]; dog, serum, po, 6 mg/kg, intragastrically, 6mg/kg, solid powder, 0.5 hr, read-out: Mangiferin aglycone concentration in serum): 470 nM; concentration at 0.75 h ([1]; dog, serum, po, 6 mg/kg, intragastrically, 6mg/kg, solid powder, 0.75 hr, read-out: Mangiferin aglycone concentration in serum): 601 nM; concentration at 1 h ([1]; dog, serum, po, 6 mg/kg, intragastrically, 6mg/kg, solid powder, 1 hr, read-out: Mangiferin aglycone concentration in serum): 387 nM; concentration at 1.5 h ([1]; dog, serum, po, 6 mg/kg, intragastrically, 6mg/kg, solid powder, 1.5 hr, read-out: Mangiferin aglycone concentration in serum): 163 nM; concentration at 2 h ([1]; dog, serum, po, 6 mg/kg, intragastrically, 6mg/kg, solid powder, 2 hr, read-out: Mangiferin aglycone concentration in serum): 158 nM; concentration at 3 h ([1]; dog, serum, po, 6 mg/kg, intragastrically, 6mg/kg, solid powder, 3 hr, read-out: Mangiferin aglycone concentration in serum): 119 nM; concentration at 4 h ([1]; dog, serum, po, 6 mg/kg, intragastrically, 6mg/kg, solid powder, 4 hr, read-out: Mangiferin aglycone concentration in serum): 96 nM; concentration at 6 h ([1]; dog, serum, po, 6 mg/kg, intragastrically, 6mg/kg, solid powder, 6 hr, read-out: Mangiferin aglycone concentration in serum): 84.4 nM; concentration at 8 h ([1]; dog, serum, po, 6 mg/kg, intragastrically, 6mg/kg, solid powder, 8 hr, read-out: Mangiferin aglycone concentration in serum): 80.8 nM; oral bioavailability ([1]; same oral dosage, compared with commercially available mangiferin aglycone): higher; stability to light, moisture, heat ([2]; conclusion from the active destructing test): stable; peak area of mangiferin aglycone [2, 6]: 233; situations of other degradation products [2, 6]: No new peak for degradation product was found; peak area of mangiferin aglycone [2, 7]: 234; situations of other degradation products [2, 7]: No new peak for degradation product was found; peak area of mangiferin aglycone [2, 8]: 0; situations of other degradation products [2, 8]: UV shift occurred, and there were many peaks for degradation products; peak area of mangiferin aglycone [2, 9]: 234; situations of other degradation products [2, 9]: No peak for degradation product was found; peak area of mangiferin aglycone [2, 10]: 215; situations of other degradation products [2, 10]: One new degradation product was found; peak area of mangiferin aglycone ([2]; undestructed (baseline sample)): 234; situations of other degradation products ([2]; undestructed (baseline sample)): No new peak for degradation product was found; stability of solution ([3]; different alkaline phosphate buffer solutions, compared with mangiferin aglycone): better; remaining at 2 h ([3]; pH 8, phosphate buffer pH8, 37°C, standing time 2h): 98.6%; remaining at 4 h ([3]; pH 8, phosphate buffer pH8, 37°C, standing time 4h): 98.4%; remaining at 6 h ([3]; pH 8, phosphate buffer pH8, 37°C, standing time 6h): 98.3%; remaining at 8 h ([3]; pH 8, phosphate buffer pH8, 37°C, standing time 8h): 98.2%; remaining at 12 h ([3]; pH 8, phosphate buffer pH8, 37°C, standing time 12h): 97.5%; remaining at 2 h ([3]; pH 9, phosphate buffer pH9, 37°C, standing time 2h): 98.5%; remaining at 4 h ([3]; pH 9, phosphate buffer pH9, 37°C, standing time 4h): 98.2%; remaining at 6 h ([3]; pH 9, phosphate buffer pH9, 37°C, standing time 6h): 98%; remaining at 8 h ([3]; pH 9, phosphate buffer pH9, 37°C, standing time 8h): 97.8%; remaining at 12 h ([3]; pH 9, phosphate buffer pH9, 37°C, standing time 12h): 97.2%; remaining at 2 h ([3]; pH 10, phosphate buffer pH10, 37°C, standing time 2h): 97.2%; remaining at 4 h ([3]; pH 10, phosphate buffer pH10, 37°C, standing time 4h): 97.4%; remaining at 6 h ([3]; pH 10, phosphate buffer pH10, 37°C, standing time 6h): 97%; remaining at 8 h ([3]; pH 10, phosphate buffer pH10, 37°C, standing time 8h): 96.3%; remaining at 12 h ([3]; pH 10, phosphate buffer pH10, 37°C, standing time 12h): 95%

Q: For `O=c1c2cc(O)c(O)cc2oc2cc(O)cc(O)c12` [mangiferin aglycone, 1,3,6,7-tetrahydroxyxanthone], which concentration ([1]; intragastrically, 6mg/kg, solid powder, 0.25 hr, 6 mg/kg, 15 min, read-out: Mangiferin aglycone concentration in serum) is on record?
A: 666 nM

Q: And the concentration ([1]; intragastrically, 6mg/kg, solid powder, 0.5 hr, 6 mg/kg, 30 min, read-out: Mangiferin aglycone concentration in serum)?
A: 404 nM

Q: What about the concentration ([1]; intragastrically, 6mg/kg, solid powder, 0.75 hr, 6 mg/kg, 45 min, read-out: Mangiferin aglycone concentration in serum) of the same compound?
A: 414 nM

Q: What about the concentration ([1]; intragastrically, 6mg/kg, solid powder, 1 hr, 6 mg/kg, 60 min, read-out: Mangiferin aglycone concentration in serum) of the same compound?
A: 366 nM

Q: And the concentration ([1]; intragastrically, 6mg/kg, solid powder, 1.5 hr, 6 mg/kg, 90 min, read-out: Mangiferin aglycone concentration in serum)?
A: 136 nM

Q: And the concentration ([1]; intragastrically, 6mg/kg, solid powder, 2 hr, 6 mg/kg, 120 min, read-out: Mangiferin aglycone concentration in serum)?
A: 108 nM

Q: What about the concentration ([1]; intragastrically, 6mg/kg, solid powder, 3 hr, 6 mg/kg, 180 min, read-out: Mangiferin aglycone concentration in serum) of the same compound?
A: 100 nM

Q: And the concentration ([1]; intragastrically, 6mg/kg, solid powder, 4 hr, 6 mg/kg, 240 min, read-out: Mangiferin aglycone concentration in serum)?
A: 70.1 nM

Q: What about the concentration ([1]; intragastrically, 6mg/kg, solid powder, 6 hr, 6 mg/kg, 360 min, read-out: Mangiferin aglycone concentration in serum) of the same compound?
A: 52.6 nM

Q: What about the concentration ([1]; intragastrically, 6mg/kg, solid powder, 8 hr, 6 mg/kg, 480 min, read-out: Mangiferin aglycone concentration in serum) of the same compound?
A: 41.3 nM

Q: And the blood concentration ([1]; same oral dosage, compared with mangiferin aglycone crystal form I)?
A: significantly lower

Q: What about the “in vivo secretion of insulin induced by glucose” value (C57BL/6 normal mouse; C57BL/6-normal mouse) of the same compound?
A: increase

Q: What about the IGTT (C57BL/6 normal mouse; C57BL/6 normal mouse) of the same compound?
A: significantly improve

Q: And the type of inhibition [4]?
A: competitive inhibitor

Q: And the “blood glucose of the experimental animal” value [5]?
A: reduce

Q: And the sensitivity to insulin [5]?
A: significantly improve

Q: What about the “content of mangiferin aglycone” value ([3]; phosphate buffer pH8, 37°C, standing time 2h, 120 min) of the same compound?
A: 98.5%

Q: What about the “content of mangiferin aglycone” value ([3]; phosphate buffer pH8, 37°C, standing time 4h, 240 min) of the same compound?
A: 97.5%

Q: And the “content of mangiferin aglycone” value ([3]; phosphate buffer pH8, 37°C, standing time 6h, 360 min)?
A: 96.3%

Q: What about the “content of mangiferin aglycone” value ([3]; phosphate buffer pH8, 37°C, standing time 8h, 480 min) of the same compound?
A: 94.5%

Q: What about the “content of mangiferin aglycone” value ([3]; phosphate buffer pH8, 37°C, standing time 12h, 720 min) of the same compound?
A: 93.2%

Q: What about the “content of mangiferin aglycone” value ([3]; phosphate buffer pH9, 37°C, standing time 2h, 120 min) of the same compound?
A: 97.3%

Q: And the “content of mangiferin aglycone” value ([3]; phosphate buffer pH9, 37°C, standing time 4h, 240 min)?
A: 94.3%

Q: And the “content of mangiferin aglycone” value ([3]; phosphate buffer pH9, 37°C, standing time 6h, 360 min)?
A: 93.4%

Q: And the “content of mangiferin aglycone” value ([3]; phosphate buffer pH9, 37°C, standing time 8h, 480 min)?
A: 92.3%

Q: And the “content of mangiferin aglycone” value ([3]; phosphate buffer pH9, 37°C, standing time 12h, 720 min)?
A: 91.0%

Q: And the “content of mangiferin aglycone” value ([3]; phosphate buffer pH10, 37°C, standing time 2h, 120 min)?
A: 97.7%

Q: What about the “content of mangiferin aglycone” value ([3]; phosphate buffer pH10, 37°C, standing time 4h, 240 min) of the same compound?
A: 93.8%

Q: What about the “content of mangiferin aglycone” value ([3]; phosphate buffer pH10, 37°C, standing time 6h, 360 min) of the same compound?
A: 92.1%

Q: What about the “content of mangiferin aglycone” value ([3]; phosphate buffer pH10, 37°C, standing time 8h, 480 min) of the same compound?
A: 91.0%

Q: And the “content of mangiferin aglycone” value ([3]; phosphate buffer pH10, 37°C, standing time 12h, 720 min)?
A: 90.3%
